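Five compound concentrations were applied to cells in 96-well plates for 48 hours; endpoints were derived by simple linear interpolation of the resulting dose-response curve. Abbreviation: GI50, concentration required for 50% inhibition of growth.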 The source made the active and inactive calls. No stated cut-off is given here; in the data, active = GI50 up to about 1.1 µM and inactive = higher.
Assays:
Assay in all cases: growth of human tumour cells (NCI), 48 h
A498 = tested on: A498
A549 = tested on: A549
CAKI-1 = tested on: CAKI-1
COLO 205 = tested on: COLO 205
EKVX = tested on: EKVX
HCT-116 = tested on: HCT-116
HOP-92 = tested on: HOP-92
HT-29 = tested on: HT-29
KM12 = tested on: KM12
M14 = tested on: M14
MDA-MB-231 = tested on: MDA-MB-231
MOLT-4 = tested on: MOLT-4
NCI/ADR-RES = tested on: NCI/ADR-RES
OVCAR-8 = tested on: OVCAR-8
SK-MEL-2 = tested on: SK-MEL-2
SN12C = tested on: SN12C
SNB-19 = tested on: SNB-19
SR = tested on: SR
UO-31 = tested on: UO-31
TK-10 = tested on: TK-10

O=C(Nc1ccc(Cl)cc1)c1cc(S(=O)(=O)Nc2n[nH]c(=O)n2-c2ccccc2)c(S)cc1Cl
GI50 (A498): > 100 µM (inactive)
GI50 (A549): > 100 µM (inactive)
GI50 (CAKI-1): > 100 µM (inactive)
GI50 (COLO 205): > 100 µM (inactive)
GI50 (EKVX): > 100 µM (inactive)
GI50 (HCT-116): > 100 µM (inactive)
GI50 (HOP-92): > 100 µM (inactive)
GI50 (HT-29): > 100 µM (inactive)
GI50 (KM12): > 100 µM (inactive)
GI50 (M14): > 100 µM (inactive)
GI50 (MDA-MB-231): > 100 µM (inactive)
GI50 (MOLT-4): 6.22 µM (inactive)
GI50 (NCI/ADR-RES): > 100 µM (inactive)
GI50 (OVCAR-8): > 100 µM (inactive)
GI50 (SK-MEL-2): > 100 µM (inactive)
GI50 (SN12C): > 100 µM (inactive)
GI50 (SNB-19): > 100 µM (inactive)
GI50 (SR): > 100 µM (inactive)
GI50 (UO-31): > 100 µM (inactive)

COC1C(C)OC(OC2CC(C)(O)Cc3cc4c(c(O)c32)C(=O)c2c(O)cc3c(c2C4=O)OC2OC3(C)C(O)C(N(C)C)C2O)C(OC)C1(C)OC (centres undefined)
GI50 (A498): 0.0256 µM (active)
GI50 (A549): 0.00498 µM (active)
GI50 (COLO 205): 0.0179 µM (active)
GI50 (EKVX): 0.0409 µM (active)
GI50 (HCT-116): 0.015 µM (active)
GI50 (HOP-92): 0.0333 µM (active)
GI50 (HT-29): 0.0243 µM (active)
GI50 (KM12): 0.00527 µM (active)
GI50 (M14): 0.00479 µM (active)
GI50 (MDA-MB-231): 0.00129 µM (active)
GI50 (MOLT-4): 0.00469 µM (active)
GI50 (NCI/ADR-RES): 2.21 µM (inactive)
GI50 (OVCAR-8): 0.00496 µM (active)
GI50 (SK-MEL-2): 0.0158 µM (active)
GI50 (SN12C): 0.0378 µM (active)
GI50 (SNB-19): 0.00378 µM (active)
GI50 (SR): 0.00385 µM (active)
GI50 (TK-10): 0.00527 µM (active)
GI50 (UO-31): 0.411 µM (active)

S=C1c2ccccc2N=C(NC2CCCC2)C2CSCN12 (centres undefined)
GI50 (A498): 88.9 µM (inactive)
GI50 (A549): > 100 µM (inactive)
GI50 (CAKI-1): > 100 µM (inactive)
GI50 (COLO 205): > 100 µM (inactive)
GI50 (EKVX): 37.2 µM (inactive)
GI50 (HCT-116): 80.7 µM (inactive)
GI50 (HT-29): 48.5 µM (inactive)
GI50 (KM12): 20.4 µM (inactive)
GI50 (M14): 91.8 µM (inactive)
GI50 (MDA-MB-231): > 100 µM (inactive)
GI50 (MOLT-4): 26.3 µM (inactive)
GI50 (NCI/ADR-RES): > 100 µM (inactive)
GI50 (OVCAR-8): > 100 µM (inactive)
GI50 (SK-MEL-2): > 100 µM (inactive)
GI50 (SN12C): > 100 µM (inactive)
GI50 (SNB-19): > 100 µM (inactive)
GI50 (SR): 39.6 µM (inactive)
GI50 (TK-10): > 100 µM (inactive)
GI50 (UO-31): 65.2 µM (inactive)

CC1(C)OCC(C(O)C2OC(C)(C)OC2C=O)O1 (centres undefined)
GI50 (A498): > 100 µM (inactive)
GI50 (A549): > 100 µM (inactive)
GI50 (COLO 205): > 100 µM (inactive)
GI50 (EKVX): > 100 µM (inactive)
GI50 (HCT-116): > 100 µM (inactive)
GI50 (HT-29): > 100 µM (inactive)
GI50 (KM12): > 100 µM (inactive)
GI50 (M14): > 100 µM (inactive)
GI50 (MDA-MB-231): > 100 µM (inactive)
GI50 (MOLT-4): > 100 µM (inactive)
GI50 (NCI/ADR-RES): > 100 µM (inactive)
GI50 (OVCAR-8): > 100 µM (inactive)
GI50 (SK-MEL-2): > 100 µM (inactive)
GI50 (SN12C): > 100 µM (inactive)
GI50 (SNB-19): > 100 µM (inactive)
GI50 (SR): > 100 µM (inactive)
GI50 (TK-10): > 100 µM (inactive)
GI50 (UO-31): > 100 µM (inactive)

CS(=O)(=O)OCCn1c(=O)n(CCOS(C)(=O)=O)c(=O)n(CCOS(C)(=O)=O)c1=O
GI50 (A498): > 100 µM (inactive)
GI50 (A549): > 100 µM (inactive)
GI50 (CAKI-1): > 100 µM (inactive)
GI50 (COLO 205): > 100 µM (inactive)
GI50 (EKVX): > 100 µM (inactive)
GI50 (HCT-116): > 100 µM (inactive)
GI50 (HT-29): > 100 µM (inactive)
GI50 (KM12): > 100 µM (inactive)
GI50 (MDA-MB-231): > 100 µM (inactive)
GI50 (MOLT-4): > 100 µM (inactive)
GI50 (NCI/ADR-RES): > 100 µM (inactive)
GI50 (OVCAR-8): > 100 µM (inactive)
GI50 (SN12C): > 100 µM (inactive)
GI50 (SNB-19): > 100 µM (inactive)
GI50 (SR): > 100 µM (inactive)
GI50 (TK-10): > 100 µM (inactive)
GI50 (UO-31): > 100 µM (inactive)

COc1ccc(S(=O)(=O)Nc2ccc(-c3csc(N4C(=O)/C(=C/c5ccccc5[N+](=O)[O-])N=C4c4ccccc4)n3)cc2)cc1Cl
GI50 (A498): 23.8 µM (inactive)
GI50 (A549): 33 µM (inactive)
GI50 (CAKI-1): > 100 µM (inactive)
GI50 (COLO 205): 65.8 µM (inactive)
GI50 (HCT-116): 38.8 µM (inactive)
GI50 (HOP-92): 23.3 µM (inactive)
GI50 (HT-29): > 100 µM (inactive)
GI50 (KM12): 50.6 µM (inactive)
GI50 (M14): 24.4 µM (inactive)
GI50 (MDA-MB-231): 20.3 µM (inactive)
GI50 (MOLT-4): 29.9 µM (inactive)
GI50 (NCI/ADR-RES): 86.1 µM (inactive)
GI50 (OVCAR-8): 35.3 µM (inactive)
GI50 (SK-MEL-2): 60.5 µM (inactive)
GI50 (SN12C): > 100 µM (inactive)
GI50 (SNB-19): 59 µM (inactive)
GI50 (SR): 30.8 µM (inactive)
GI50 (TK-10): 53.3 µM (inactive)
GI50 (UO-31): 32.3 µM (inactive)

COc1cc(Cn2c3c(c4c(C(=O)NCCN(C)C)c(O)ccc42)C(=O)c2ccccc2C3=O)cc(OC)c1
GI50 (A498): 1.95 µM (inactive)
GI50 (A549): 1.88 µM (inactive)
GI50 (CAKI-1): 1.68 µM (inactive)
GI50 (COLO 205): 1.81 µM (inactive)
GI50 (EKVX): 1.82 µM (inactive)
GI50 (HCT-116): 1.76 µM (inactive)
GI50 (HT-29): 1.87 µM (inactive)
GI50 (KM12): 1.58 µM (inactive)
GI50 (M14): 1.73 µM (inactive)
GI50 (MDA-MB-231): 2.1 µM (inactive)
GI50 (NCI/ADR-RES): 2.32 µM (inactive)
GI50 (OVCAR-8): 1.91 µM (inactive)
GI50 (SK-MEL-2): 1.8 µM (inactive)
GI50 (SN12C): 1.85 µM (inactive)
GI50 (SNB-19): 2.51 µM (inactive)
GI50 (SR): 0.31 µM (active)
GI50 (TK-10): 1.61 µM (inactive)
GI50 (UO-31): 1.71 µM (inactive)
